Reference: US11040975B2, “Carbocyclic nucleoside reverse transcriptase inhibitors” (Merck Sharp & Dohme Corp., priority 2017, dated 2021)

The compounds below were run against T1, HIV-1 RT enzyme (Human immunodeficiency virus type 1 group M subtype B, UniProt P04585) (assay: RT Polymerase Assay). Details: not given.
T1 construct: Full-length wild-type and 2 mutant RT proteins were expressed in Escherichia coli BL21(DE3) cells and purified; made in house; host or cells: Escherichia coli BL21(DE3)
Format: biochemical
Source text: The compounds of Formula I, and pharmaceutically acceptable salts thereof, are HIV reverse transcriptase inhibitors. The compounds are useful for inhibiting HIV reverse transcriptase and for inhibiting HIV replication in vitro and in vivo. More particularly, the compounds of Formula I inhibit the polymerase function of HIV-1 reverse transcriptase. The testing of compounds of the Examples of the invention in the assay set forth in the RT Polymerase Assay below, illustrates the ability of compounds of the invention to inhibit the RNA-dependent DNA polymerase activity of HIV-1 reverse transcriptase. The compounds of Formula I may also be useful agents against HIV-2.
Full-length wild-type and 2 mutant RT proteins were expressed in Escherichia coli BL21(DE3) cells and purified. Briefly, the heterodimeric nucleic acid substrate used in the HIV-1 RT polymerase reactions was generated by annealing biotinylated DNA primer to a 500 nucleotide RNA template. The HIV-1 RT enzyme (final concentration of 50 pM) was combined with an inhibitor compound or DMSO (10% DMSO in the final reaction mixture) in assay buffer (62.5 mM Tris-HCl, pH 7.8, 1.25 mM dithiothreitol, 7.5 mM MgCl2, 100 mM KCl, 0.03% CHAPS, 0.125 mM EGTA). This mixture was pre-incubated for 30 minutes at room temperature in microtiter plates. The polymerization reaction was initiated by the addition of template/primer substrate (final concentration: 16.6 nM) and dNTPs (final concentration: 2 μM dCTP, dGTP, dATP, and 66.6 nM Ru-dUTP). After 90 min of incubation at 37° C., reactions were quenched by the addition of EDTA (25 mM). The resulting mixture was incubated for an additional 5 minutes at room temperature followed by transferring the solution (50 μL) to blocked avidin plate from Meso Scale Discovery (MSD). The mixtures were incubated at room temperature for 60 min prior to the quantification of the reaction product via an ECL 6000 imager instrument.

Compound	IC50 [pM]
C#CC1(COP(=O)(O)OP(=O)(O)OP(=O)(O)O)CC(n2cc(C)c(=O)[nH]c2=O)CC1O (racemic) [Example (+/−) 48, ((1S,2S,4R)-1-ethynyl-2-hydroxy-4-(5-methyl-2,4-dioxo-3,4-dihydropyrimidin-1(2H)-yl)cyclopentyl)methyl tetrahydrogen triphosphate and ((1R,2R,4S)-1-ethynyl-2-hydroxy-4-(5-methyl-2,4-dioxo-3,4-dihydropyrimidin-1(2H)-yl)cyclopentyl)methyl tetrahydrogen triphosphate]	114000
N#CC1(COP(=O)(O)OP(=O)(O)OP(=O)(O)O)CC(n2cnc3c(=O)[nH]c(N)nc32)CC1O (racemic) [Example (+/−) 75, ((1S,2S,4R)-4-(2-amino-6-oxo-1,6-dihydro-9H-purin-9-yl)-1-cyano-2-hydroxycyclopentyl)methyl tetrahydrogen triphosphate and ((1R,2R,4S)-4-(2-amino-6-oxo-1,6-dihydro-9H-purin-9-yl)-1-cyano-2-hydroxycyclopentyl)methyl tetrahydrogen triphosphate]	444000
C#CC1(COP(=O)(O)OP(=O)(O)OP(=O)(O)O)CC(n2cnc3c(=O)[nH]c(N)nc32)CC1O (racemic) [Example (+/−) 47, ((1S,2S,4R)-4-(2-amino-6-oxo-1,6-dihydro-9H-purin-9-yl)-1-ethynyl-2-hydroxycyclopentyl)methyl tetrahydrogen triphosphate and ((1R,2R,4S)-4-(2-amino-6-oxo-1,6-dihydro-9H-purin-9-yl)-1-ethynyl-2-hydroxycyclopentyl)methyl tetrahydrogen triphosphate]	324000
C#CC1(COP(=O)(O)OP(=O)(O)OP(=O)(O)O)CC(n2ccc(N)nc2=O)CC1O (racemic) [Example (+/−) 49, ((1S,2S,4R)-4-(4-amino-2-oxopyrimidin-1(2H)-yl)-1-ethynyl-2-hydroxycyclopentyl)methyl tetrahydrogen triphosphate and ((1R,2R,4S)-4-(4-amino-2-oxopyrimidin-1(2H)-yl)-1-ethynyl-2-hydroxycyclopentyl)methyl tetrahydrogen triphosphate]	> 1e+08
Cc1cn(C2CC(O)C(C#N)(COP(=O)(O)OP(=O)(O)OP(=O)(O)O)C2)c(=O)[nH]c1=O (racemic) [Example (+/−) 76, ((1S,2S,4R)-1-cyano-2-hydroxy-4-(5-methyl-2,4-dioxo-3,4-dihydropyrimidin-1(2H)-yl)cyclopentyl)methyl tetrahydrogen triphosphate and ((1R,2R,4S)-1-cyano-2-hydroxy-4-(5-methyl-2,4-dioxo-3,4-dihydropyrimidin-1(2H)-yl)cyclopentyl)methyl tetrahydrogen triphosphate]	523000

Same assay, conditions: HIV-1 RT 50 pM; 90 min at 37° C.; triphosphates tested; read-out: dNTP IC50

Compound	IC50 [pM]
((1S,2S,4R)-4-(6-amino-2-chloro-9H-purin-9-yl)-1-ethynyl-2-hydroxycyclopentyl)methyl tetrahydrogen triphosphate or ((1R,2R,4S)-4-(6-amino-2-chloro-9H-purin-9-yl)-1-ethynyl-2-hydroxycyclopentyl)methyl tetrahydrogen triphosphate [Example 44B]	9.32e+06
((1S,2S,4R)-4-(6-amino-2-chloro-9H-purin-9-yl)-1-ethynyl-2-hydroxycyclopentyl)methyl tetrahydrogen triphosphate and ((1R,2R,4S)-4-(6-amino-2-chloro-9H-purin-9-yl)-1-ethynyl-2-hydroxycyclopentyl)methyl tetrahydrogen triphosphate [Example (+/−) 44]	2.02e+07
((1S,2S,4R)-4-(6-chloro-2-fluoro-9H-purin-9-yl)-1-ethynyl-2-hydroxycyclopentyl)methyl tetrahydrogen triphosphate and ((1R,2R,4S)-4-(6-chloro-2-fluoro-9H-purin-9-yl)-1-ethynyl-2-hydroxycyclopentyl)methyl tetrahydrogen triphosphate [Example (+/−) 40]	> 1e+08
((1S,2S,4R)-4-(2,6-dichloro-9H-purin-9-yl)-1-ethynyl-2-hydroxycyclopentyl)methyl tetrahydrogen triphosphate and ((1R,2R,4S)-4-(2,6-dichloro-9H-purin-9-yl)-1-ethynyl-2-hydroxycyclopentyl)methyl tetrahydrogen triphosphate [Example (+/−) 43]	> 1e+08
((1S,2S,4R)-4-(2-amino-6-chloro-9H-purin-9-yl)-1-ethynyl-2-hydroxycyclopentyl)methyl tetrahydrogen triphosphate and ((1R,2R,4S)-4-(2-amino-6-chloro-9H-purin-9-yl)-1-ethynyl-2-hydroxycyclopentyl)methyl tetrahydrogen triphosphate [Example (+/−) 42]	1.32e+07
((1S,2S,4R)-4-(4-amino-2-chloro-7H-pyrrolo[2,3-d]pyrimidin-7-yl)-1-ethynyl-2-hydroxycyclopentyl)methyl tetrahydrogen triphosphate and ((1R,2R,4S)-4-(4-amino-2-chloro-7H-pyrrolo[2,3-d]pyrimidin-7-yl)-1-ethynyl-2-hydroxycyclopentyl)methyl tetrahydrogen triphosphate [Example (+/−) 46]	1.39e+07
((1S,2S,4R)-4-(2,4-dichloro-7H-pyrrolo[2,3-d]pyrimidin-7-yl)-1-ethynyl-2-hydroxycyclopentyl)methyl tetrahydrogen triphosphate and ((1R,2R,4S)-4-(2,4-dichloro-7H-pyrrolo[2,3-d]pyrimidin-7-yl)-1-ethynyl-2-hydroxycyclopentyl)methyl tetrahydrogen triphosphate [Example (+/−) 45]	3.38e+07
((1S,2S,4R)-4-(6-amino-2-fluoro-9H-purin-9-yl)-1-ethynyl-2-hydroxycyclopentyl)methyl tetrahydrogen triphosphate and ((1R,2R,4S)-4-(6-amino-2-fluoro-9H-purin-9-yl)-1-ethynyl-2-hydroxycyclopentyl)methyl tetrahydrogen triphosphate [Example (+/−) 41]	3.46e+06
